Test results reported in PMC11435058, “Synthesis of New Thiazole-Privileged Chalcones as Tubulin Polymerization Inhibitors with Potential Anticancer Activities” (Pharmaceuticals, 2024).

Experiments:
SNB-19 = assay: cells; settings: Homo sapiens, SNB-19, 48 h, read-out: Growth Percentage
HL-60(TB) = assay: NCI-60 anticancer screen (SRB; single dose and five doses); settings: Homo sapiens, HL-60, 48 h, read-out: Growth Percentage
MOLT-4 = assay: as above; settings: Homo sapiens, MOLT-4, 48 h, read-out: Growth Percentage
HOP-62 = assay: as above; settings: Homo sapiens, HOP-62, 48 h, read-out: Growth Percentage
NCI-H23 = assay: as above; settings: Homo sapiens, NCI-H23, 48 h, read-out: Growth Percentage
HCC-2998 = assay: as above; settings: Homo sapiens, HCC 2998, 48 h, read-out: Growth Percentage
SW-620 = assay: as above; settings: Homo sapiens, SW-620, 48 h, read-out: Growth Percentage
SF-295 = assay: as above; settings: Homo sapiens, SF-295, 48 h, read-out: Growth Percentage
SF-539 = assay: as above; settings: Homo sapiens, SF-539, 48 h, read-out: Growth Percentage
MALME-3M = assay: as above; settings: Homo sapiens, 48 h, read-out: Growth Percentage
M14 = assay: as above; settings: Homo sapiens, M14, 48 h, read-out: Growth Percentage
MDA-MB-435 = assay: as above; settings: Homo sapiens, MDA-MB-435, 48 h, read-out: Growth Percentage
SK-MEL-28 = assay: as above; settings: Homo sapiens, SK-MEL-28, 48 h, read-out: Growth Percentage
SK-MEL-5 = assay: as above; settings: Homo sapiens, SK-MEL-5, 48 h, read-out: Growth Percentage
UACC-257 = assay: as above; settings: Homo sapiens, UACC-257, 48 h, read-out: Growth Percentage
OVCAR-4 = assay: as above; settings: Homo sapiens, OVCAR-4, 48 h, read-out: Growth Percentage
SK-OV-3 = assay: as above; settings: Homo sapiens, SK-OV-3, 48 h, read-out: Growth Percentage
786-0 = assay: as above; settings: Homo sapiens, 786-0, 48 h, read-out: Growth Percentage
A498 = assay: as above; settings: Homo sapiens, A498, 48 h, read-out: Growth Percentage, A498; dose of 10 μM
RXF 393 = assay: as above; settings: Homo sapiens, RXF 393, 48 h, read-out: Growth Percentage
SN12C = assay: as above; settings: Homo sapiens, 48 h, read-out: Growth Percentage
TK-10 = assay: as above; settings: Homo sapiens, TK-10, 48 h, read-out: Growth Percentage
PC-3 = assay: as above; settings: Homo sapiens, PC-3, 48 h, read-out: Growth Percentage
DU-145 = assay: as above; settings: Homo sapiens, DU-145, 48 h, read-out: Growth Percentage
MDA-MB-231/ATCC = assay: as above; settings: Homo sapiens, MDA-MB-231, 48 h, read-out: Growth Percentage
BT-549 = assay: as above; settings: Homo sapiens, BT-549, 48 h, read-out: Growth Percentage
T-47D = assay: as above; settings: Homo sapiens, T47D, 48 h, read-out: Growth Percentage
CCRF-CEM = assay: NCI-60 anticancer screen (SRB; single dose 10 μM and five doses); settings: Homo sapiens, 48 h, read-out: Growth Percentage

With `Cc1[nH]c(=S)sc1C(=O)/C=C/c1ccc(N(C)C)cc1` [2k, (E)-3-(4-(Dimethylamino)Phenyl)-1-(4-Methyl-2-Thioxo-2,3-Dihydrothiazol-5-yl)Prop-2-En-1-One] as the compound, how does the activity at 10 µM (SNB-19) read?
The activity at 10 µM was 71.2%.

What about the activity at 10 µM (HL-60(TB)) of the same compound?
The activity at 10 µM was 87%.

And the activity at 10 µM (MOLT-4)?
The activity at 10 µM was 62.1%.

What about the activity at 10 µM (HOP-62) of the same compound?
The activity at 10 µM was 86.2%.

And the activity at 10 µM (NCI-H23)?
Its activity at 10 µM is 71.1%.

What about the activity at 10 µM (HCC-2998) of the same compound?
Its activity at 10 µM is 95.3%.

And the activity at 10 µM (SW-620)?
The activity at 10 µM was 89.9%.

What about the activity at 10 µM (SF-295) of the same compound?
Its activity at 10 µM is 79.8%.

And the activity at 10 µM (SF-539)?
The activity at 10 µM was 88.7%.

And the activity at 10 µM (MALME-3M)?
The activity at 10 µM was 79.4%.

What about the activity at 10 µM (M14) of the same compound?
The activity at 10 µM was 83.2%.

What about the activity at 10 µM (MDA-MB-435) of the same compound?
The activity at 10 µM was 58.4%.

And the activity at 10 µM (SK-MEL-28)?
Its activity at 10 µM is 92.7%.

And the activity at 10 µM (SK-MEL-5)?
Its activity at 10 µM is 51.3%.

And the activity at 10 µM (UACC-257)?
Its activity at 10 µM is 64.1%.

And the activity at 10 µM (OVCAR-4)?
The activity at 10 µM was 51.2%.

And the activity at 10 µM (SK-OV-3)?
The activity at 10 µM was 92.6%.

And the activity at 10 µM (786-0)?
The activity at 10 µM was 91.7%.

What about the activity at 10 µM (A498) of the same compound?
The activity at 10 µM was 130%.

What about the activity at 10 µM (RXF 393) of the same compound?
The activity at 10 µM was 90.8%.

And the activity at 10 µM (SN12C)?
Its activity at 10 µM is 75.7%.

What about the activity at 10 µM (TK-10) of the same compound?
The activity at 10 µM was 86.8%.

What about the activity at 10 µM (PC-3) of the same compound?
The activity at 10 µM was 71.7%.

And the activity at 10 µM (DU-145)?
The activity at 10 µM was 92.8%.

What about the activity at 10 µM (MDA-MB-231/ATCC) of the same compound?
The activity at 10 µM was 90.3%.

And the activity at 10 µM (BT-549)?
The activity at 10 µM was 82.2%.

What about the activity at 10 µM (T-47D) of the same compound?
The activity at 10 µM was 32.4%.

What about the activity at 10 µM (CCRF-CEM) of the same compound?
Its activity at 10 µM is 68.5%.
